According to patent US6991908B1, “Antiobestic agents methods for screening antiobestic agents and kits comprising same” (Takeda Chemical Industries, Ltd., priority 1998, dated 2006):
Positions of bridges follow the written chain, without caps; N, C: chain ends. No end group written: not given here.

Legend:
rat SLC-1 [1] = molecular target: T1, rat SLC-1 (Rattus norvegicus, UniProt P97639); assay: cAMP synthesis inhibitory activity on rat SLC-1-expression CHO cells (forskolin-stimulated, cAMP EIA); type: cell-based; conditions: 2 μM forskolin
T1 construct: expressed in transfected cells; host or cells: CHO dhfr- cells, plasmid pAKK0-SLC-1, mainly clone #44
T1 sequence (P97639 whole entry): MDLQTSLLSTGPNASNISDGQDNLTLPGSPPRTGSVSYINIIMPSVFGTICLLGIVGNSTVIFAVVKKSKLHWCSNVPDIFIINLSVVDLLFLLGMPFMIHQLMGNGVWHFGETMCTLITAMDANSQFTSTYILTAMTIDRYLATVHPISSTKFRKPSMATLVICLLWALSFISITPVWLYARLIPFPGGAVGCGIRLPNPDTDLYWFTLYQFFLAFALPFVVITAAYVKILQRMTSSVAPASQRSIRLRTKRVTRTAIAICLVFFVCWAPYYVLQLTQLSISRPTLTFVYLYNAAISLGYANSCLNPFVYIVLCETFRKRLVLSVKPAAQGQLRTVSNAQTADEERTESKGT
Method: The CHO/SLC-1 cells prepared in EXAMPLE 4 and mock CHO cells were inoculated on a 24-well plate in 5×10^4 cells/well. After incubation for 48 hours, the cells were washed with Hanks' balanced salt solution (pH 7.4) supplemented with 0.2 mM 3-isobutylmethylxanthine, 0.05% BSA and 20 mM HEPES (hereinafter Hanks' balanced salt solution (pH. 7.4) supplemented with 0.2 mM 3-isobutylmethylxanthine, 0.05% BSA and 20 mM HEPES is referred to as a reaction buffer). Thereafter, 0.5 ml of the reaction buffer was added to the cells, which was kept warm in the medium for 30 minutes. The reaction buffer was removed and 0.25 ml of a fresh reaction buffer was added to the cells. Then, 0.25 ml of the reaction buffer containing the HPLC fraction and 2 μM for skolin was added to the cells followed by reacting at 37° C. for 24 minutes. By adding 100 μl of 20% perchloric acid, the reaction was terminated. The reaction mixture was then allowed to stand on ice for an hour to extract intracellular cAMP. The amount of cAMP in the extract was measured using a cAMP EIA kit (Amersham Pharmacia Biotech). As a result, the cAMP synthesis inhibitory activity specific to the CHO/SLC-1 cells was detected in fractions #33, #34 and #35 (FIG. 1). In FIG. 1, taking as 100% the amount obtained by subtracting the intracellular cAMP amount when adding the reaction buffer from the intracellular cAMP amount when adding the forskolin-containing reaction buffer, the cAMP synthesis inhibitory activity was expressed by % in terms of the intracellular cAMP amount obtained by subtracting the intracellular cAMP amount when adding the reaction buffer from the intracellular cAMP amount when adding the HPLC fraction (a 1 μl aliquot of each fraction diluted to 100-fold with DMSO was added).
The CHO/SLC-1 cells selected in EXAMPLE 4 were inoculated on a 24-well plate in 5×10^4 cells/well followed by cultivation for 48 hours. […] The amount of cAMP in the extract was measured using cAMP EIA kit (Amersham Pharmacia Biotech).

human SLC-1 [2] = molecular target: T2, human SLC-1 (Homo sapiens, UniProt Q99705); assay: Arachidonic acid metabolite release activity on human SLC-1-expression CHO cells; type: cell-based; conditions: human SLC-1 expression cells (CHO/hSLC-1(S) or CHO/hSLC-1(L))
T2 construct: expressed in transfected cells; host or cells: CHO dhfr- cells, plasmid pAKK0-hSLC-1(S) or pAKK0-hSLC-1(L)
T2 sequence (Q99705 with tags, fused parts or gaps): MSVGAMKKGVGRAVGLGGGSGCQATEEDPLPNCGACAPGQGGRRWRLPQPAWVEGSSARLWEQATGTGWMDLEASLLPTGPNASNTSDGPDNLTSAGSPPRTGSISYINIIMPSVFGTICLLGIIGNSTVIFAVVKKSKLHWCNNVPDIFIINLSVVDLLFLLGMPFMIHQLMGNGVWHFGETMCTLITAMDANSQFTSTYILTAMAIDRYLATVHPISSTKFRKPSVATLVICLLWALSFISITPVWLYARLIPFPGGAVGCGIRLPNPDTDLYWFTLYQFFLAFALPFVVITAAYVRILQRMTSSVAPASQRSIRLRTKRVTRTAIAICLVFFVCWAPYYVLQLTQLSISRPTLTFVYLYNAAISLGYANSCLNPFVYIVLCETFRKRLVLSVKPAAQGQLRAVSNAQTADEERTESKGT
Method: The CHO/hSLC-1(S) strain or the CHO/hSLC-1(L) strain, which was human SLC-1-expression CHO cells selected in EXAMPLE 13, were inoculated on a 24-well plate in 5×10^4 cells/well. After incubation for 24 hours, [^3H] arachidonic acid was added in 0.25 μCi/well. Sixteen hours after the addition of [^3H] arachidonic acid, the cells were washed with Hanks' balanced salt solution (pH 7.4) containing 0.05% BSA and 20 mM HEPES. […] Hereinafter, Hanks' balanced salt solution (pH7.4) containing 0.05% BSA and 20 mM HEPES is referred to as a reaction buffer. After incubating at 37° C. for 60 minutes, 400 μl of the reaction solution was charged in a scintillator and the amount of [^3H] arachidonic acid metabolites released into the reaction solution was measured using a scintillation counter.

human SLC-1 [3] = molecular target: T2, human SLC-1; assay: GTPγS binding activity using human SLC-1-expression CHO cell membrane fraction (Example 16); type: biochemical
Method: A human SLC-1-expression CHO cell membrane fraction was prepared by the following procedure. Human SLC-1-expression CHO cells (1×10^8 cells) were suspended in phosphate buffered saline (pH 7.4) supplemented with 5 mM EDTA (ethylene diamine tetra acetic acid) followed by centrifugation. after 10 ml of a homogenate buffer (10 mM NaHCO3, 5 mM EDTA, pH 7.5) was added to the cell pellets, the mixture was homogenized with a polytron homogenizer. the homogenate was then centrifuged at 400×g for 15 minutes. the resulting supernatant was further centrifuged at 100,000×g for an hour to give membrane fraction precipitates. the precipitates were suspended in 2 ml of an assay buffer (50 mM Tris-HCl (pH 7.5), 1 mM EDTA, 0.1% BSA (bovine serum albumin), 10 mM MgCl2, 100 mM NaCl, 1 mM GDP (guanosine 5′-diphosphate), 0.25 mM PMSF (phenylmethylsulfonyl fluoride), 1 μg/ml pepstatin, 20 μg/ml leupeptin, 10 μg/ml phosphoramidon] and the suspension was centrifuged at 100,000×g for an hour. the cell membrane recovered as precipitates was resuspended in 20 ml of the assay buffer. after dispensing, the suspension was stored at −80° C., which may be thawed every time at use.

rat SLC-1 [4] = molecular target: T1, rat SLC-1; assay: Arachidonic acid metabolite release activity on rat SLC-1-expression CHO cells; type: cell-based
Method: The CHO/SLC-1 cells selected in EXAMPLE 4 were inoculated on a 24-well plate in 5×10^4 cells/well. After incubation for 24 hours, [^3H] arachidonic acid was added to each well in 0.25 μCi/well. Sixteen hours after the addition of [^3H] arachidonic acid, the cells were washed with Hanks' balanced salt solution (pH7.4) containing 0.05% BSA and 20 mM HEPES. […] Hereinafter Hanks' balanced salt solution (pH 7.4) containing 0.05% BSA and 20 mM HEPES is referred to as a reaction buffer. After incubating at 37° C. for 60 minutes, 400 μl of the reaction solution was charged in a scintillator and the amount of [^3H]arachidonic acid metabolites released into the reaction solution was measured using a scintillation counter.

human SLC-1 [5] = molecular target: T2, human SLC-1; assay: cAMP synthesis inhibitory activity on human SLC-1-expression CHO cells; type: cell-based; conditions: human SLC-1 expression cells (CHO/hSLC-1(S) or CHO/hSLC-1(L)), 2 μM forskolin
Method: The CHO/hSLC-1(S) strain or the CHO/hSLC-1(L) strain, which was human SLC-1-expression CHO cells selected in EXAMPLE 13, was inoculated on a 24-well plate in 5×10^4 cells/well followed by cultivation for 48 hours. The cells were then washed with Hanks' balanced salt solution (pH 7.4) containing 0.2 mM 3-isobutylmethylxanthine, 0.05% BSA and 20 mM HEPES (hereinafter Hanks' balanced salt solution (pH 7.4) containing 0.2 mM 3-isobutylmethylxanthine, 0.05% BSA and 20 mM HEPES is referred to as a reaction buffer). Subsequently, 0.5 ml of the reaction buffer was added to the cells, which was maintained in the medium for 30 minutes. The reaction buffer was removed and 0.25 ml of a fresh reaction buffer was added to the cells. […] By adding 100 μl of 20% perchloric acid, the reaction was terminated. Next, the reaction mixture was allowed to stand on ice for an hour to extract intracellular cAMP. The amount of cAMP in the extract was measured using cAMP EIA kit (Amersham Pharmacia Biotech).

rat SLC-1 [6] = molecular target: T1, rat SLC-1; assay: GTPγS binding activity to rat SLC-1-expression CHO cell membrane fraction (Example 9); type: biochemical
Method: First, preparation of the membrane fraction is described. To 1×10^8 CHO/SLC-1 cells was added 10 ml of a homogenate buffer (10 mM NaHCO3, 5 mM EDTA, 0.5 mM PMSF, 1 μg/ml pepstatin, 4 μg/ml E64, 20 μg/ml leupeptin), followed by cell disruption with a polytron (12,000 rpm, 1 min.). The disrupted cells were then centrifuged (1,000 g, 15 mins.) to give the supernatant. Next, the supernatant was subjected to ultracentrifugation (Beckman type 30 rotor, 30,000 rpm, 1 hour). The resulting precipitate was used as a rat SLC-1-expression CHO cell membrane.
The GTPyS binding activity was assayed as follows. The rat SLC-1-expression CHO cell membrane fraction was diluted with a buffer for membrane dilution (50 mM Tris-hydrochloride buffer (pH 7.4), 5 mM MgCl2, 150 mM NaCl, 1 μM GDP) to make a cell membrane fraction solution for assay having a protein concentration of […]. […] The resulting solution mixture was kept at 25° C. for an hour. The mixture was filtrated through a filter. After washing twice with 1.5 ml of a washing buffer (50 mM Tris-hydrochloride buffer (pH 7.4), 5 mM MgCl2, 1 mM EDTA, 0.1% BSA), radioactivity of the filter was measured using a liquid scintillation counter.

human SLC-1 [7] = molecular target: T2, human SLC-1; assay: Receptor binding test using [125I]-labeled MCH(4-19) and human SLC-1-expression CHO cell membrane fraction; conditions: various membrane fraction concentrations; FIG. 9
Method: The cell membrane fraction prepared from human SLC-1-expression CHO cells according to EXAMPLE 16 was diluted with an assay buffer (25 mM Tris-HCl, 1 mM EDTA (ethylene diamine tetra acetic acid), 0.1% BSA (bovine serum albumin), 0.25 mM PMSF (phenylmethylsulfonyl fluoride), 1 μg/ml pepstatin, 20 μg/ml leupeptin, 10 μg/ml phosphoramidon, pH 7.5) in various concentration.

concentration at which the amount of intracellular cAMP was obviously reduced (rat SLC-1 [1])	cAMP synthesis (production) inhibitory activity, dose dependence (rat SLC-1 [1]; FIG. 5)	amount of [35S]-GTPγS bound, dose dependence (human SLC-1 [3])	concentration at which apparent release of arachidonic acid metabolites occurred (rat SLC-1 [4]; 37° C. 60 minutes)	arachidonic acid metabolite release, dose dependence (rat SLC-1 [4]; FIG. 6)	amount of intracellular cAMP, dose dependence (human SLC-1 [5])	amount of [35S]-GTPγS bound to the membrane fraction, dose dependence (rat SLC-1 [6])	EC50 (rat SLC-1 [6]; 25° C. 1 hour, read-out: concentration inducing 50% binding of [35S]-GTPγS)	Compound	cAMP synthesis (production) inhibitory activity, dose dependence (rat SLC-1 [1]; FIG. 5, listed as rat MCH)	arachidonic acid metabolite release activity, dose dependence (human SLC-1 [2])	specific binding (SB) to the cell membrane fraction (human SLC-1 [7])
0.1 nM	decreased dose-dependently	increased dose-dependently	3 nM	dose-dependently released	decreased dose-dependently	dose-dependently increased	~500 pM	CSCC[C@@H]1NC(=O)[C@@H](NC(=O)[C@H](CCCNC(=N)N)NC(=O)[C@H](CC(C)C)NC(=O)[C@H](CCSC)NC(=O)[C@H](CC(=O)O)NC(=O)[C@H](Cc2ccccc2)NC(=O)[C@@H](N)CC(=O)O)CSSC[C@@H](C(=O)N[C@@H](Cc2c[nH]c3ccccc23)C(=O)N[C@@H](CCC(N)=O)C(=O)N[C@H](C(=O)O)C(C)C)NC(=O)[C@@H]2CCCN2C(=O)[C@H](CCCNC(=N)N)NC(=O)[C@H](Cc2ccc(O)cc2)NC(=O)[C@H](C(C)C)NC(=O)[C@H](CCCNC(=N)N)NC(=O)CNC(=O)[C@H](CC(C)C)NC1=O [MCH]	showed the inhibitory activity dose-dependently	showed the arachidonic acid metabolite release activity dose-dependently	–
–	–	–	–	–	–	–	–	[^125I]-[N-(3-(4-Hydroxy-3-iodophenyl)propionyl)-Met^4]-MC H(4-19) ({3‑(4-hydroxy-3-(125I)iodophenyl)propionyl}-MLRCMLGRVYRPCWQV; disulfide 4-13) [[^125I]-labeled MCH(4-19)]	–	–	recognized dependent on the concentration of the membrane fraction
